The record followed here is EPA's ToxValDB 9.5.

SMILES strings stand for the structures. “And” between values parts separate entries of the source, which are not always exact repeats. Equal entries are not always repeated.

A word on the NOAEL: it is the highest dose or exposure tested at which no adverse effect was seen. In general, LOAEL refers to the lowest dose or exposure tested at which an adverse effect was seen. The term LD50 denotes the dose at which mortality reaches 50%.

Data set [1] has as its system Rattus norvegicus. The note with it: for LC50 / LD50: acute.
Data set [2] relates to Mus musculus.
Data set [3] relates to Rattus norvegicus. The note with it: oral, diet; for LEL / NOEL: chronic.
Data set [4] relates to Mus musculus. The note with it: chronic; duration: 5 months; oral; diet; M; hepatic.
The subject of data set [5] is Rattus norvegicus. The note with it: oral.
Where [6] appears, read: repeat dose other, inhalation, B6C3F1.
The mark [7] stands for this setting: duration: 2 years, M/F, reduced body weight.
[8] abbreviates: duration: 2 years, M/F, increased absolute and relative liver weight.
Where [9] appears, read: duration: 2 years, M/F, increased levels of serum proteins and increased liver weight.
Setting [10] is: short-term, duration: 28 days, gavage, M, Sprague-Dawley, Clinical Observation: Spontaneous locomotion decrease, Respiratory rate decrease, Prone position Eyelid closure Staggering gait Incomplete ….
Setting [11] is: subchronic, duration: 13 weeks, oral, diet, Fischer 344.
Setting [12] is: subchronic, duration: 13 weeks, oral, diet, M, B6C3F1.
The mark [13] stands for this setting: chronic, duration: 14 weeks, inhalation, B6C3F1.

For the compound `C=CC(=C)C` [Isoprene], the LC50 in data set [1] (inhalation) is 180000 mg/m3 and 157000 mg/m3; in data set [2] (acute, inhalation), 180000 mg/m3 and 157000 mg/m3. In addition, the NOAEL in data set [1] (developmental, duration: 6 days, inhalation, Sprague-Dawley, generation: F1) is 19500 mg/m3; in data set [1] (reproduction developmental, inhalation, Fischer 344), 195 mg/m3; in data set [2] (developmental, duration: 6 days, inhalation, CD-1/Swiss, generation: F1) it was 19500 mg/m3; in data set [2] (setting [6]) it was 27.9 mg/m3; in data set [2] (reproduction developmental, inhalation, B6C3F1), 195 mg/m3. Besides, the LOAEL in data set [2] (setting [6]) is 195 mg/m3.

`COc1nc(NC(C)C)nc(NC(C)C)n1` [Prometon] displayed an NOAEL in data set [3] (subchronic, M/F, no effects) of 15 mg/kg-day.

In data set [3] (setting [7]), `CN(C)c1nc(=O)n(C2CCCCC2)c(=O)n1C` [Hexazinone] registered an LEL of 50 mg/kg-day and an NOEL of 10 mg/kg-day.

Take `c1cc[n+]2c(c1)-c1cccc[n+]1CC2` [Diquat]: the LEL in data set [3] (F, lens opacity and cataracts) amounted to 0.72 mg/kg-day; in data set [3] (M, lens opacity and cataracts) it was 0.58 mg/kg-day. In addition, the NOEL in data set [3] (M/F, lens opacity and cataracts) was 0.22 mg/kg-day.

Regarding `CC1=C(C)S(=O)(=O)CCS1(=O)=O` [Dimethipin], in data set [3] (setting [8]), the LEL amounted to 10 mg/kg-day and the NOEL came out at 2 mg/kg-day.

In data set [4], `CNNC` [1,2-Dimethylhydrazine] had an LOAEL of 0.75 mg/kg-day.

Regarding `CC(C)COC(=O)C(C)C` [Isobutyl isobutyrate], the LD50 is over 6400 mg/kg in data set [1] (oral) and over 6400 mg/kg in data set [2] (acute, oral).

With `CCCCCCCCCCCCOC(=O)CCSCCC(=O)OCCCCCCCCCCCC` [Propanoic acid, 3,3'-thiobis-, didodecyl ester], the 50% lethal dose (LD50) in data set [1] (oral) was over 2500 mg/kg; in data set [2] (acute, oral) it was over 2000 mg/kg. Further, the NOAEL in data set [1] (reproduction developmental, duration: 13 weeks, oral, gavage, Sprague-Dawley) was found to be 350 mg/kg-day; in data set [1] (subchronic, duration: 13 weeks, oral, gavage, Sprague-Dawley), 350 mg/kg-day.

In data set [3] (setting [9]), `CC(C)Oc1cc(-n2nc(C(C)(C)C)oc2=O)c(Cl)cc1Cl` [Oxadiazon] returned an LEL of 5 mg/kg-day and an NOEL of 0.5 mg/kg-day.

Consider `OCC(CO)(CBr)CBr` [Pentaerythritol dibromide], for which the figures for the NOAEL in data set [5] (setting [10]), in data set [1] (setting [11]) and in data set [2] (setting [12]) were 200 mg/kg-day, 120 mg/kg-day and 123 mg/kg-day, respectively. In addition, the NOEL in data set [5] (setting [10]) is under 200 mg/kg-day; in data set [5] (subchronic, duration: 13 weeks, diet, F, Fischer 344, Body Weight Changes: decrease + Urinalysis: Total protein increase, Urine volume increase, Specific gravity decrease + Blood Chemistry: TP …), 100 mg/kg-day; in data set [5] (subchronic, duration: 13 weeks, diet, M/F, Fischer 344, Body Weight Changes: decrease + Urinalysis: Total protein increase, Urine volume increase, Specific gravity decrease + Blood Chemistry: TP …), under 120 mg/kg-day. For the same compound, the LD50 was 1880 mg/kg in data set [1] (oral, gavage, Crl:CD1) and over 2000 mg/kg in data set [1] (oral, gavage, Sprague-Dawley). Besides, the LOAEL in data set [1] (subchronic, duration: 3 months, oral, diet, Fischer 344) is 240 mg/kg-day; in data set [1] (setting [11]), 240 mg/kg-day; in data set [2] (chronic, duration: 104 weeks, oral, diet, B6C3F1), 57.7 mg/kg-day; in data set [2] (subchronic, duration: 13 weeks, oral, diet, F, B6C3F1), 123 mg/kg-day; in data set [2] (setting [12]) it was 246 mg/kg-day. The “NOAEL (% diet)” value amounted to 0.1 in data set [2] (reproduction developmental, oral, diet, CD1, generation: F0); 0.1 in data set [2] (reproduction developmental, oral, diet, CD1, generation: F1); 0.1 in data set [2] (reproduction developmental, oral, diet, CD1, generation: F2).

Regarding `COCCOCCOC` [Diethylene glycol dimethyl ether], the NOEL in data set [5] (subchronic, gavage, M, Sprague-Dawley, Hematology: Hgb decrease, Hct decrease, MCV decrease + Necropsy: Spleen: Enlargement + Histopathology: Liver/Centrilobular- Hypertrophy of …) worked out at 2.5 mg/kg-day. Moreover, in data set [1] (inhalation, nose only, Wistar), the LC50 is over 11000 mg/m3. Also, in data set [1] (repeat dose other, inhalation, M), the NOAEC was 165 mg/m3. Further, the NOAEL in data set [1] (short-term, duration: 2 weeks, inhalation, nose only, F) is 2030 mg/m3; in data set [2] (developmental, duration: 9 days, oral, gavage, CD1), 62.8 mg/kg-day; in data set [2] (reproduction developmental, duration: 9 days, oral, gavage, F, CD1), 500 mg/kg-day. In data set [1] (short-term, duration: 2 weeks, inhalation, nose only, M), the LOAEL came to 604 mg/m3.

Turning to `C=CC=C` [1,3-Butadiene], the LOAEL in data set [1] (repeat dose other, inhalation, Sprague-Dawley) is > 17700 mg/m3 and 17700 mg/m3; in data set [1] (reproduction developmental, inhalation, Sprague-Dawley), 3320 mg/m3; in data set [2] (setting [13]), 5530 mg/m3. For the same compound, the NOAEL in data set [1] (reproduction developmental, duration: 10 days, inhalation, Sprague-Dawley, generation: F1) came to 2210 mg/m3; in data set [1] (reproduction developmental, inhalation, Sprague-Dawley, generation: F0), 664 mg/m3; in data set [2] (setting [13]), 2770 mg/m3; in data set [2] (reproduction developmental, duration: 5 days, inhalation, M, B6C3F1) it was 442 mg/m3; in data set [2] (reproduction developmental, duration: 10 days, inhalation, CD1, generation: F1), 88.5 mg/m3.
